Laboratory results taken from PMC7998250, “Temperate Zone Plant Natural Products—A Novel Resource for Activity against Tropical Parasitic Diseases” (Pharmaceuticals, 2021).
Like-named read-outs stand apart in the source and are kept apart here.

Key:
[1] = tested on: P. falciparum Dd2Luc intraerythrocytic trophozoites; assay: Initial screen, intraerythrocytic P. falciparum, Malaria SYBR-Green I fluorescence assay; assay type: cell-based, Plasmodium falciparum; conditions: Plasmodium falciparum, 48 h
Procedure: (§1) 634 compounds from the PhytoQuest Phytopure temperate plant natural product library were screened for growth inhibitory activity against L. mexicana axenic amastigotes, T. brucei bloodstream form, intraerythrocytic asexual P. falciparum (at 2 μM) and T. evansi bloodstream form parasites (at 1 μM). […] Our initial hits were defined as reducing growth of the parasite by ≥50%. […]
(§2) The PhytoQuest Phytopure library is a commercially available collection of purified compounds isolated predominantly from temperate zone plants, with structures confirmed by NMR and mass spectrometry. The library was provided as 634 non-polar compounds (1 mg/mL in DMSO). Initial screening was performed in a 96-well plate with 200 μL of parasite culture. The initial screen used each compound at a final concentration of 2 μM for L. mexicana axenic amastigotes, T. brucei and P. falciparum, and at 1 μM for T. evansi. L. mexicana axenic amastigotes were plated at 1 × 10^6 cells/mL, incubated for 72 h, and the Alamar Blue assay was used to assess parasite growth. Each compound was tested in triplicate, with two biological replicates (n = 6). T. brucei and T. evansi were plated at 1×10^5 cells/mL for 48 h, and the Alamar Blue assay was used to assess parasite growth. Each compound was tested in triplicate with two biological replicates (n = 6). Intraerythrocytic P. falciparum in the trophozoite stage were seeded at 0.5% parasitaemia and 2% haematocrit for 48 h, and the Malaria SYBR-Green I fluorescence assay was used to assess parasite growth. Each compound was tested in duplicate with two biological replicates (n = 4). Negative controls comprised an equivalent volume of DMSO (equivalent of 1% v/v) to normalise the growth data. Data points >100% growth and <0% growth were tabulated as 100% and 0%, respectively. Some compounds were not tested in all parasite lines as there was insufficient material remaining.

[2] = tested on: T. evansi bloodstream form; assay: Initial screen, T. evansi bloodstream form, Alamar Blue; assay type: cell-based, Trypanosoma evansi; conditions: Trypanosoma evansi; for activity at 1 µM: initial screen; for inhibition of growth at 1 µM: x = initial hit, read-out: initial hit T.e
Procedure: (§3) 634 compounds from the PhytoQuest Phytopure temperate plant natural product library were screened for growth inhibitory activity against L. mexicana axenic amastigotes, T. brucei bloodstream form, intraerythrocytic asexual P. falciparum (at 2 μM) and T. evansi bloodstream form parasites (at 1 μM). […] Our initial hits were defined as reducing growth of the parasite by ≥50%.
(§4) L. mexicana strain MNYC/BZ/62/M379 and L. donovani strain LdBOB (a clonal line from strain MHOM/SD/62/1S-CL2) were maintained in vitro in the procyclic promastigote stage. Parasites were cultivated at 26 °C in Schneider’s medium (Gibco) pH 7.0 containing 10% FBS, 100 U/mL penicillin (Lonza) and 100 μg/mL streptomycin (Lonza) as previously described. Differentiation into axenic amastigotes was performed as described previously. Briefly, axenic amastigotes were cultivated at 32 °C in Schneider’s medium pH 5.5 containing 10% FBS, 100 U/mL penicillin (Lonza) and 100 μg/mL streptomycin (Lonza). Bloodstream form T. brucei brucei strain Lister 427 and T. evansi strain Antat 3/3 [59] were maintained in vitro at 37 °C with 5% (v/v) CO2 in HMI-11 medium supplemented with 10% FBS, as described elsewhere. Intraerythrocytic cultures of P. falciparum Dd2^Luc strain [62] were maintained at 37 °C in a 1% O2:3% CO2:96% N2 atmosphere in RPMI-1640 containing 37.5 mM HEPES, 5 mM NaOH, 10 mM D-glucose, 2 mM L-glutamine, 100 μM hypoxanthine, […] gentamicin sulfate, 5% human serum and 5% albumax-II and 2% haematocrit erythrocytes. When required, cultures were synchronised to ring stages using the sorbitol lysis method. Preliminary cytotoxicity screening was assessed using HepG2 cells. These cells were maintained in vitro at 37 °C with 5% (v/v) CO2 in DMEM (Sigma) pH 7 supplemented with 10% FBS, 100 U/mL penicillin (Lonza) and 100 μg/mL streptomycin (Lonza), as previously described. The human monocyte cell line THP-1 [68] was maintained in vitro by culturing at 37 °C with 5% (v/v) CO2 in complete RPMI medium (Dutch modified RPMI-1640 (Gibco) containing 10% FBS and 2 mM L-glutamine (Gibco)). Differentiation of THP-1 cells into macrophages was performed by seeding 2.5 × 10^5 cells/mL in complete RPMI media, supplemented with 20 ng/mL phorbol 12-myristate 13-acetate (PMA), followed by incubation at 37 °C with 5% (v/v) CO2 for 24 h.
as §2, with “The” for “The PhytoQuest Phytopure library is a commercially available collection of purified compounds isolated predominantly from temperate zone plants, with structures confirmed by NMR and mass spectrometry. The”

T. evansi = assay: Concentration-response EC50, T. evansi; assay type: cell-based; conditions: Trypanosoma evansi; bloodstream form, 48 h; read-out: T. evansi EC50
[3] = tested on: L. mexicana axenic amastigotes; assay: Initial screen, L. mexicana axenic amastigotes, Alamar Blue; assay type: cell-based, Leishmania mexicana; conditions: for activity at 2 µM / inhibition of growth at 2 µM: Leishmania mexicana; for initial hit against L. mexicana / inhibition of growth at 2 µM: 2 μM; for initial hit against L. mexicana: growth inhibited by ≥80%; for inhibition of growth at 2 µM: x = initial hit, read-out: initial hit L.m
Procedure: as §1, §2

[4] = tested on: T. brucei bloodstream form; assay: Initial screen, T. brucei bloodstream form, Alamar Blue; assay type: cell-based, Trypanosoma brucei brucei; conditions: for initial hit against T. brucei / inhibition of growth at 2 µM: 2 μM; for initial hit against T. brucei: growth reduced by ≥50%; for activity at 2 µM / inhibition of growth at 2 µM: Trypanosoma brucei; for activity at 2 µM: initial screen; for inhibition of growth at 2 µM: x = initial hit, read-out: initial hit T.b
Procedure: as §3, §4
as §2, with “The” for “The PhytoQuest Phytopure library is a commercially available collection of purified compounds isolated predominantly from temperate zone plants, with structures confirmed by NMR and mass spectrometry. The”

in vitro = conditions: human, pH 7, HepG2 CC50
Excerpt: Initial hits from the parasite panel screen were taken forward in log concentration versus normalised response assays to estimate the half maximal effective concentration (EC50) in hit species as well as the half maximal cytotoxic concentrations (CC50) in the human hepatoma cell line HepG2 as a preliminary test for selectivity. Using CC50/EC50 to define the selectivity index (SI), the selectivity for each compound in a defined species compared to a human cell line was estimated and compared to the EC50 (Figure 3).
as §4
EC50 values were determined by serial two-fold dilution of each compound in 96 well plates. Culture conditions and viability assays were as stated for the initial screen, with some exceptions. L. mexicana and L. donovani axenic amastigotes were seeded at 2 × 10^6 cell/s mL, T. brucei and T. evansi were seeded at 2 × 10^5 cells/mL. For cytotoxicity studies, HepG2 cells were seeded at 1 × 10^5 cells/mL, incubated for 48 h and viability was assessed using the Alamar Blue assay. Differentiated THP-1 cells were seeded at 5 × 10^4 cells/mL, incubated for 48 h, and viability was assessed by the Alamar Blue assay. Normalised growth and viability data (compared to untreated controls) were plotted against Log10 concentration to estimate EC50 in GraphPad (Prism v6). Bioluminescence relative rate of kill assays in asexual intraerythrocytic P. falciparum Dd2^Luc were carried out as described.

[5] = Cytotoxicity CC50, differentiated THP-1, Alamar Blue; assay type: cell-based, human; conditions: human, THP-1 cells differentiated into macrophages with PMA, differentiated THP-1, 48 h; read-out: THP1 CC50
Excerpt: The four lanosterone-like sterols derived from the Noble Fir Abies procera (700022, 700107, 700136) and the Grand Fir Abies grandis (700240) were the only initial compounds taken forward for L. mexicana due to their nanomolar activity and apparent low cytotoxicity (Figure 3a). […] Understanding the impact of the ring-opened lactone head group in this compound compared to the other three warrants further analysis in exploring their structure-activity relationships. These four sterols were also tested for growth inhibitory activity against L. donovani axenic amastigotes. […] As Leishmania spp. amastigotes typically reside with macrophages, further cytotoxicity assays with these sterols were performed against an activated monocyte cell line (THP-1) (Figure 4b). […]

[6] = tested on: L. mexicana axenic amastigotes; assay: Concentration-response EC50, L. mexicana axenic amastigotes (WT); assay type: cell-based, Leishmania mexicana; conditions: Leishmania mexicana, 72 h, read-out: L. mexicana EC50, axenic amastigotes, 72 h
Procedure: EC50 values were determined by serial two-fold dilution of each compound in 96 well plates. Culture conditions and viability assays were as stated for the initial screen, with some exceptions. L. mexicana and L. donovani axenic amastigotes were seeded at 2 × 10^6 cell/s mL, T. brucei and T. evansi were seeded at 2 × 10^5 cells/mL. For cytotoxicity studies, HepG2 cells were seeded at 1 × 10^5 cells/mL, incubated for 48 h and viability was assessed using the Alamar Blue assay [66, 67]. […] Normalised growth and viability data (compared to untreated controls) were plotted against Log10 concentration to estimate EC50 in GraphPad (Prism v6).

T. brucei = assay: Concentration-response EC50, T. brucei; assay type: cell-based, Trypanosoma brucei brucei; conditions: Trypanosoma brucei, 48 h, bloodstream form, 48 h; read-out: T. brucei EC50
[7] = read-out: %growth P. falciparum, mean % growth compared to a normalised control with same concentration of DMSO solvent, initial screen
[8] = mean % growth compared to a normalised control with same concentration of DMSO solvent, read-out: % growth T. evansi
[9] = read-out: % growth L. mexicana, mean % growth compared to a normalised control with same concentration of DMSO solvent, initial screen
[10] = mean % growth compared to a normalised control with same concentration of DMSO solvent, read-out: % growth T. b. brucei
[11] = read-out: mean % growth, P. falciparum, initial screen, compared to a normalised control with same concentration of DMSO solvent
[12] = compared to a normalised control with same concentration of DMSO solvent, read-out: mean % growth, T. evansi
[13] = read-out: mean % growth, L. mexicana, initial screen, compared to a normalised control with same concentration of DMSO solvent
[14] = compared to a normalised control with same concentration of DMSO solvent, read-out: mean % growth, T. b. brucei

Compound: C/C=C(\C)C(=O)OC1C(C)OC(Oc2c(C(C)C)ccc(C)c2O)C(O)C1OC1OC(C)C(OC(=O)C(C)CC)C(O)C1O (stereo not drawn) [Compound 700004]
- activity at 2 µM [1, 7]: 101%
- activity at 1 µM [2, 8]: 0.7%
- inhibition of growth at 1 µM [2]: > 50%
- EC50 (T. evansi): 357 nM
- activity at 2 µM [3, 9]: 48.1%
- initial hit against T. brucei [4]: initial hits
- activity at 2 µM [4, 10]: 14%
- inhibition of growth at 2 µM [4]: > 50%
- CC50 at 48 h (in vitro): 16 µM

Compound: COc1ccc(CC2COC(=O)C2Cc2ccc(OC)c(O)c2O)cc1OC (stereo not drawn) [Compound 700144]
- activity at 2 µM [1, 7]: 82.6%
- activity at 1 µM [2, 8]: 35.8%
- inhibition of growth at 1 µM [2]: > 50%
- EC50 (T. evansi): 451 nM
- activity at 2 µM [3, 9]: 83.6%
- activity at 2 µM [4, 10]: 69.4%
- CC50 at 48 h (in vitro): > 100 µM

Compound: C/C(=C\C(=O)O)C(O)CC12CCCCC1C(C)(C(=O)OC(O)O)CCC2 (stereo not drawn) [Compound 700513]
- activity at 2 µM [1, 11]: 97%
- activity at 1 µM [2, 12]: 50%
- inhibition of growth at 1 µM [2]: > 50%
- EC50 (T. evansi): 756 nM
- activity at 2 µM [3, 13]: 56.5%
- activity at 2 µM [4, 14]: 104%
- CC50 at 48 h (in vitro): > 100 µM

Compound: C=C1C(=O)OC2/C=C(/C)CC/C=C(/C)CC(OC(=O)/C(C)=C\CO)C12 (stereo not drawn) [Compound 700756]
- inhibition of growth at 2 µM ([1]; read-out: initial hit P.f): > 50%
- activity at 2 µM [1, 11]: 44%
- activity at 1 µM [2, 12]: 98.4%
- CC50 at 48 h [5]: 2800 nM
- EC50 [6]: 1000 nM
- initial hit against L. mexicana [3]: initial hits
- activity at 2 µM [3, 13]: 2.9%
- inhibition of growth at 2 µM [3]: > 80%
- activity at 2 µM [4, 14]: 53.7%

Compound: CC#CC#CC(=O)c1cccc(OC)c1C(=O)OC [Compound 701044]
- activity at 2 µM [1, 11]: 92.6%
- activity at 1 µM [2, 12]: 90.3%
- CC50 at 48 h [5]: 2200 nM
- EC50 [6]: 330 nM
- initial hit against L. mexicana [3]: initial hits
- activity at 2 µM [3, 13]: -4.5%
- inhibition of growth at 2 µM [3]: > 80%
- activity at 2 µM [4, 14]: 79.3%

Compound: CC(=O)OC1C(COC(=O)/C=C/c2ccc(O)cc2)OC(Oc2c(-c3ccc(O)cc3)oc3cc(O)cc(O)c3c2=O)C(OC(=O)/C=C/c2ccc(O)cc2)C1O (stereo not drawn) [Compound 701088]
- activity at 2 µM [1, 11]: 99.9%
- activity at 1 µM [2, 12]: 42.7%
- inhibition of growth at 1 µM [2]: > 50%
- EC50 (T. evansi): 816 nM
- activity at 2 µM [3, 13]: 81.1%
- activity at 2 µM [4, 14]: 63%
- CC50 at 48 h (in vitro): 54 µM

Compound: C=C(CC)C(=O)OC1CC(=C)C2CC(O)C(=C)C2C2OC(=O)C(=C)C12 (stereo not drawn) [Compound 701212]
- activity at 2 µM [1, 11]: 84.7%
- activity at 1 µM [2, 12]: 86.5%
- CC50 at 48 h [5]: 520 nM
- EC50 [6]: 330 nM
- initial hit against L. mexicana [3]: initial hits
- activity at 2 µM [3, 13]: 1.5%
- inhibition of growth at 2 µM [3]: > 80%
- activity at 2 µM [4, 14]: 77.1%

Compound: CC#CC#CCc1cccc(O)c1 [Compound 701241]
- activity at 2 µM [1, 11]: 96.5%
- CC50 at 48 h [5]: 270 nM
- EC50 [6]: 330 nM
- initial hit against L. mexicana [3]: initial hits
- activity at 2 µM [3, 13]: 15%
- inhibition of growth at 2 µM [3]: > 80%
- initial hit against T. brucei [4]: initial hits
- activity at 2 µM [4, 14]: -1.9%
- inhibition of growth at 2 µM [4]: > 50%
- EC50 (T. brucei): 2200 nM
- CC50 at 48 h (in vitro): 0.67 µM
